According to patent publication USRE39420E1, “1,2-Diphenylpyrrole derivatives, their preparation and their therapeutic uses” (Sankyo Company, Limited, priority 1996, dated 2006):

What was measured:
[1] = test system: yeast-inflamed pain in rats; test: Analgesic effect on yeast-inflamed pain in rats (Randall-Selitto method); type: in vivo, Wistar-Imamichi rats; conditions: Rattus norvegicus, oral, pain threshold 0.5, 1 and 2 hours after administration, read-out: Efficacy Rate (No. of animals in which drug was effective/No. of animals used in test) (converted)
Protocol: The compound was suspended in 0.5%tragacanth and administered orally at a volume of 5 ml/kg. The control group was administered with 0.5% tragacanth only as a vehicle.
Wistar-Imamichi rats (males, 5 week old, body weights: 80-100 g) were used in this test.
The test was conducted in accordance with the method of Winter and Flataker [J. Pharmacol. Exp. Ther. 150, 165-171, (1965)], which is a modification of the original method of Randall and Selitto [Arch. Int. Pharmacodyn. Ther. 111, 405-419, (1957)]. The rats were fasted for 16 hours prior to use. Inflammation was induced by subcutaneous injection of 0.1 ml of a suspension of 20% beer yeast (Sigma) into the right hind footpad of the animal. After 4.5 hours, increasing pressure was applied to the inflamed footpad at a constant speed using an Analgesy meter (Trade mark) (Ugo-Basile Co.).
First the average of pain threshold values at each time point (0.5, 1, and 2 hr) was calculated in a control group. If a pain threshold value exceeded 2 times the control average value at the same time point even once in the drug-treated groups, then the animal was considered to indicate efficacy. Efficacy rates of the drug were estimated by the evaluation method of Blake [J. Pharm. Pharm. 19, 367-373, (1967)].

[2] = test system: IL-1β production in human peripheral monocytes; test: Inhibitory effect on IL-1β production in LPS-stimulated human peripheral monocytes; type: cell-based; conditions: Monocyte, LPS 10 μg/ml, 20 hours
Protocol: (§1) (1) Peripheral blood was collected from healthy human volunteers in the presence of heparin. After mixing it with an equal volume of phosphate-buffered saline (PBS, Nissui Pharmaceutical), the mixture was layered onto Ficoll Paque medium (Pharmacia) at the rate of 2:1 and centrifuged at 520×g at 25° C. for 20 minutes. After centrifugation, the monocyte layer was removed and suspended in RPMI 1640 (Nissui Pharmaceutical) containing 10% fetal calf serum (FCS). The monocytes were washed once with the same medium, placed in a plastic Petri dish, pre-treated with human plasma and incubated for 2 hours in the presence of 5% CO2 to cause them to adhere to the dish. After incubation, the Petri dish was washed twice with PBS to remove the non-adherent cells. Thereafter, PBS containing 5% FCS and 0.2% EDTA was added to the Petri dish and the dish was allowed to stand undisturbed for 15 minutes at 4° C. The monocytes were recovered from the dish by pipetting. The cells were finally suspended in RPMI 1640 at a concentration of 1.25×10^5 cells/ml. (2) Culture of Human Monocytes
(§2) A 40 μl solution of the test compound and 40 μl of lipopolysaccharide (LPS; E. coli, 0.26:B6, Difco), adjusted to a final concentration of 10 μg/ml, were added to 320 μl of cell suspension. The resulting mixture was then cultured for 20 hours in the presence of 5% CO2 and the supernatant was removed at the end of cultivation to assay IL-1β and TNFα. The test compound was dissolved in dimethyl sulfoxide and diluted by a factor of 100 with FCS to reach 10 times the final concentration (the final concentrations of dimethyl sulfoxide and FCS were 0.1% and 10%, respectively).
(§3) The amount of IL-1β was measured with a commercially available ELISA kit (Cayman), after diluting the supernatant medium by a factor of 15 or 30 with the ELISA buffer. The amount of TNFα was similarly measured by a ELISA kit (Genzyme) after diluting the supernatant by a factor of 2.
(§4) The IC50 was calculated from the regression line determined by the inhibition rates and the concentrations of the test compound.

[3] = test system: Carrageenan-induced Paw Edema in rats; test: Carrageenan-induced paw edema test; type: in vivo, Wistar-Imamichi rats; conditions: Rattus norvegicus, oral, 3 hours after carrageenan, read-out: Inhibition Rate (%)
Protocol: The same test compounds were subjected to the test as those in the Randall-Selitto test of Experiment 3. Wistar-Imamichi rats (males, 6 week old, body weights: 110-120 g) were used in this test.
The method of Winter, et al. [Proc. Soc. Exp. Biol. Med. 111, 544-547, (1962)] was slightly modified to perform the test [Sankyo Annual Research Report 39, 77-111, (1989)]. The rats were fasted for 16 hours prior to use. Inflammatory edema was induced by the subcutaneous injection of 0.05 ml of a 1% carrageenan (Viscarin 402) solution into the right hind paw of the animal. The test compounds were administered orally 30 minutes before injection of carrageenan. The volume of the right hind foot was measured with a Plethysmometer (Trade mark) (Ugo-Basile Co.) just before administration of the test compound and 3 hours after injection of carrageenan to determine the edema intensity [(right foot volume after 3 hours/right foot volume before injection)-1].

[4] = test system: TNFα production in human peripheral monocytes; test: Inhibitory effect on TNFα production in LPS-stimulated human peripheral monocytes; type: cell-based; conditions: Monocyte, LPS 10 μg/ml, 20 hours
Protocol: as §1, §2, §3, §4

yeast-induced fever = test: Antipyretic effect on yeast-induced fever; type: in vivo, Wistar-Imamichi rats; conditions: Dose: 0.4 mg/kg, oral; mean of 1 and 2 hours after dosing
Protocol: The method of Roszkowski et al. [J. Pharmacol. Exp. Ther. 179, 114, (1971)] was slightly modified to perform the test. The test compound was administered in the same manner as in Experiment 3. Male Wistar-Imamichi rats (6 week old, body weights: approximately 120 g) were used in the test. Yeast (Brewer's yeast, Sigma) was suspended in physiological saline to a concentration of 25%, finely crushed in an agate mortar, and injected subcutaneously into the backs of the rats under ether-anesthesia at a volume of 2 ml/rat. The rats were fasted after the injection of yeast. On the following day (19 hours after the yeast injection), a catheter-type thermistor thermometer (Japan Koden, MGA III) was inserted approximately 5 cm into the rectum to measure the temperature of the animals. […] Rectal temperatures were measured 1 and 2 hours after administration of the test compound, and fever temperature was calculated by subtracting the normal temperature of healthy animals measured simultaneously. Inhibition rate of the group treated with the compound relative to the control group was calculated by using the mean value at 1 and 2 hours after dosing.

gastric mucosa = test: Irritative effect on gastric mucosa; type: in vivo, Wistar rats; conditions: oral; dose producing 50% incidence of gastric ulcers, 3.5 hours after dosing
Protocol: Experiments were performed according to the method described by Jahn and Adrian [Arzneim.-Forsch. 19, 36, (1969)]. Male Wistar rats weighing approximately 120 g were fasted for 16 hours before the experiment. The drugs were administered orally to rats as described in Experiment 3. Three and the half hours after dosing, the animals were killed under ether-anesthesia and the stomachs were placed into 1% of formalin. The stomach was opened by cutting along the greater curvature and the number and length of lesions were counted under a microscope (6.3×10). The ulcerogenicity in each animal was assessed according to Hitchens et. al. [Pharmacologist 9, 242, (1967)]. Incidence was determined as the rate of rats with 4 or more ulcers of more than 0.5 mm length, and UD50's (doses producing 50% incidence) were calculated from the incidence and the dose by probit (=probability unit) method.

[5] = test system: scald-induced Pain in rats; test: Scald-induced pain test; type: in vivo, Wistar-Imamichi rats; conditions: oral; pain response time, mean of 1 and 2 hours after dosing
Protocol: The test was conducted in accordance with the method of Iizuka and Tanaka [Jpn. J. Pharmacol. 70, 697, (1967)]. The test compound was administered in the same manner as in Experiment 3. Male Wistar-Imamichi rats (4-5 week old, body weights: approximately 100 g) were used after fasting for 16 hours. The right hind foot of the animal was immersed in hot water at 57° C. for 6 seconds to induce scald under ether-anesthesia. Two hours later, the scald foot of the rat was irritated by immersing in hot water at 40° C. for 5 seconds, and the animal was returned to the cage. […] Lifting up the scalded foot or licking it without coming in contact with the metal cage were considered to be pain responses. Pain response time was determined as the total time of the pain response during the 30-second observation period. […] Pain response time was again measured 1 and 2 hours after dosing and the mean value was determined. Using the mean values, inhibition rates were calculated relative to the control group. ID50 was calculated from the regression line determined by the inhibition rates and the doses.

[6] = test system: LTB4 production from human peripheral monocytes; test: Inhibitory effect on LTB4 production from human peripheral monocytes; type: cell-based; conditions: Monocyte, LTB4 in culture supernatant, ELISA
Protocol: The isolation of monocytes was carried out as described in Experiment 2-(1).
The cell culture was carried out as described in Experiment 2-(2).
The supernatant of the culture medium after incubation was subjected to the ELISA assay (Cayman). IC50 values were calculated by the least square method from the regression line determined by the inhibition rates and the doses.

Row | Structure (SMILES) | responders at 12.5 mg/kg [1] [%] | inhibition in vivo at 50 mg/kg [3] [%] | inhibition at 10 µM [4] [%] | other results
1 | CS(=O)(=O)c1ccc(-c2cccn2-c2ccc(F)cc2F)cc1 [Example 7, 1-(2,4-Difluorophenyl)-2-(4-methylsulfonylphenyl) pyrrole] | 100 | 56 |  | inhibition at 10 µM [2]: 42.6%
2 | CS(=O)(=O)c1ccc(-c2ccc(F)n2-c2ccc(F)cc2)cc1 [Example 41, 5-Fluoro-1-(4-fluorophenyl)-2-(4-methylsulfonylphenyl)pyrrole] |  | 60 |  | inhibition at 10 µM [2]: 51.2%
3 | CS(=O)(=O)c1ccc(-c2ccc(C(F)(F)F)n2-c2ccc(F)cc2)cc1 [Example 44, 5-Trifluoromethyl-1-(4-fluorophenyl)-2-(4-methylsulfonylphenyl)pyrrole] |  |  |  | melting point: 136 to 139 °C
4 | CS(=O)(=O)c1ccc(-c2cc(C(F)F)cn2-c2ccc(F)cc2)cc1 [Example 49, 1-(4-Fluorophenyl)-4-difluoromethyl-2-(4-methylsulfonylphenyl)pyrrole] |  |  | 40.9 | 
5 | COc1ccc(-n2cccc2-c2ccc(S(C)(=O)=O)cc2)cc1F [Example 54, 1-(3-Fluoro-4-methoxyphenyl)-2-(4-methylsulfonylphenyl)pyrrole] |  |  | 54.7 | 
6 | CCOc1ccc(-c2cc(C)cn2-c2ccc(S(N)(=O)=O)cc2)cc1 [Example 67, 2-(4-Ethoxyphenyl)-4-methyl-1-(4-sulfamoylphenyl) pyrrole] | 100 | 64 |  | Inhibition Rate (%) (yeast-induced fever): 78%; UD50 (gastric mucosa): >100 mg/kg; ID50 [5]: 1.6 mg/kg
7 | CCCOc1ccc(-c2cc(C)cn2-c2ccc(S(N)(=O)=O)cc2)cc1 [Example 68, 4-Methyl-2-(4-propoxyphenyl)-1-(4-sulfamoylphenyl)pyrrole] |  |  | 42.6 | 
8 | Cc1cc(-c2ccc(C)c(C)c2)n(-c2ccc(S(N)(=O)=O)cc2)c1 [Example 78, 4-Methyl-2-(3,4-dimethylphenyl)-1-(4-sulfamoylphenyl)pyrrole] | 100 | 66 |  | UD50 (gastric mucosa): >100 mg/kg; IC50 [6]: 310 nM
9 | COc1ccc(-c2cc(Cc3ccc(OC)c(OC4CCCC4)c3)cn2-c2ccc(S(N)(=O)=O)cc2)cc1 [Example 81, 4-(3-Cyclopentyloxy-4-methoxybenzyl)-2-(4-methoxyphenyl)-1-(4-sulfamoylphenyl)pyrrole] |  |  | 46.1 | 
10 | CSc1ccc(-n2cc(C)cc2-c2ccc(S(N)(=O)=O)cc2)cc1 [Example 84, 4-Methyl-1-(4-methylthiophenyl)-2-(4-sulfamoylphenyl)pyrrole] | 100 | 66 |  | Inhibition Rate (%) (yeast-induced fever): 64%; UD50 (gastric mucosa): >100 mg/kg
11 | CSc1ccc(-n2c(C)ccc2-c2ccc(S(N)(=O)=O)cc2)cc1 [Example 90, 5-Methyl-1-(4-methylthiophenyl)-2-(4-sulfamoylphenyl)pyrrole] |  | 64 |  | inhibition at 10 µM [2]: 62.2%
